Values of other authors in publication PMC4876928 (Clinical cancer research : an official journal of the …, 2016).

System: malignant pleural mesothelioma
Settings: MPM previously treated with chemotherapy, second-line; cited from earlier work

Row | Compound | response rate [%]
1 | Nc1ccn([C@@H]2O[C@H](CO)[C@@H](O)C2(F)F)c(=O)n1 [gemcitabine] | 2
2 | CCC1=C[C@@H]2CN(C1)Cc1c([nH]c3ccccc13)[C@@](C(=O)OC)(c1cc3c(cc1OC)N(C)[C@H]1[C@@](O)(C(=O)OC)[C@H](OC(C)=O)[C@]4(CC)C=CCN5CC[C@]31[C@@H]54)C2 [vinorelbine] | 2
